US20050186569A1, “Nucleic acid-associated proteins” (priority 2001, published 2005)

What was measured:
[1] = system: SEQ ID NO:100 expression in HMVECdNeos; assay: Microarray expression analysis of HMVECdNeos treated with TNF-α versus untreated cells; format: cell-based, human; conditions: HMVECdNeos at 85% confluence treated 1, 2, 4, 8, and 24 hours with TNF-α, versus untreated (0 hour)
Protocol: (§1) Total RNA is isolated from tissue samples using the guanidinium thiocyanate method and poly(A)^+ RNA is purified using the oligo-(dT) cellulose method. Each poly(A)^+ RNA sample is reverse transcribed using MMLV reverse-transcriptase, 0.05 pg/μl oligo-(dT) primer (21mer), 1× first strand buffer, 0.03 units/μl RNase inhibitor, 500 μM dATP, 500 μM dGTP, 500 μM dTTP, 40 μM dCTP, 40 μM dCTP-Cy3 (BDS) or dCTP-Cy5 (Amersham Biosciences). The reverse transcription reaction is performed in a […] containing 200 ng poly(A)^+ RNA with GEMBRIGHT kits (Incyte Genomics). Specific control poly(A)^+ RNAs are synthesized by in vitro transcription from non-coding yeast genomic DNA. […]
(§2) Sequences of the present invention are used to generate array elements. […] Array elements are amplified in thirty cycles of PCR from an initial quantity of 1-2 ng to a final quantity greater than 5 μg. […]
(§3) Reporter-labeled hybridization complexes are detected with a microscope equipped with an Innova 70 mixed gas 10 W laser (Coherent, Inc., Santa Clara Calif.) capable of generating spectral lines at 488 nm for excitation of Cy3 and at 632 nm for excitation of Cy5. […]
(§4) A grid is superimposed over the fluorescence signal image such that the signal from each spot is centered in each element of the grid. […]

[2] = system: SEQ ID NO:108 expression in HMVECdNeo cells; assay: Microarray RNA expression of HMVECdNeo cells treated with TNF-α versus untreated cells; format: cell-based, human; conditions: TNF-α 10 ng/ml for 2, 4, 8, and 24 hours, result at the last three time points, versus untreated (0 hour)
Protocol: as §1, §2, §3, §4

TNF-α was tested. Which “expression of SEQ ID NO:100” value [1] did it give?
Its value is “decreased expression”.

What about the “expression of SEQ ID NO:108 (underexpressed)” value [2] of the same substance?
The value was “at least two-fold”.
